# Test results: US20260185992A1, “METHODS FOR SELECTING AND TREATING PATIENTS WITH RETINAL DISEASE BASED ON COMPLEMENT PATHWAY HYPERACTIVITY” (Oak Bay Biosciences Inc., priority 2024, published 2026)
# Where two headings read alike, the source gives them in different places.
# Legend:
# [1] = system: patients with ocular disease (Geographic Atrophy, AMD); conditions: cited from earlier work; for benefit in trials: GA trials, systemic or IVT administered agents; for Status (clinical trial outcome): Table 1, ocular disease indication
# [2] = system: GA patients; conditions: 2 mg q4w, cited from earlier work
# [3] = FDA prescribing information; cited from earlier work
# [4] = biological target: C5 (Homo sapiens, UniProt P01031); conditions: report from publications; read-out: affinity for C5; cited from earlier work
# [5] = system: patients with geographic atrophy; assay: CHROMA + SPECTRI Phase 3 trials: change in GA area from baseline; assay type: in vivo, human
# Description: The CHROMA & SPECTRI Phase 3 trials evaluated lampalizumab (anti-fD fab) intravitreally administered IVT 10 mg at q4w or q6w intervals compared to sham (untreated) controls. Both studies had identical designs, and each enrolled a total of about 900 patients (300 per cohort, lampa q4w, lampa […], etc). The trial is described in Holz et al. (Holz F G et al. “Efficacy and Safety of Lampalizumab for Geographic Atrophy Due to Age-Related Macular Degeneration: Chroma and Spectri Phase 3 Randomized Clinical Trials”. JAMA Ophthalmol. 2018; 136 (6): 666-677)
# (§1) In addition to the overall efficacy analyses, a biomarker sub study was conducted with about 100 patients (of which 33 from sham, q4w, q6w) with biomarker sampling at baseline and Month 6. Multiple complement factors were measured, including CFB, Bb, FD, C3, C3b/iC3b/C3d, C4, C4b/C4c. Results were described in Edmonds et al. Individual data points for the measured ocular proteins were reported in figures (Edmonds at FIG. 4 and Supplemental FIGS. 4-10) in addition to cohort level metrics (baseline and efficacy at 6 months).
# As “control” prediction methodology, the pooled progression for sham, q4w, and q6w at 12 months as reported in Edmonds of the overall Phase 3 was divided by 2 to estimate the progression of a cohort of any patients at 6 months.
# [6] = system: Bb in aqueous humor; assay: CHROMA/SPECTRI Phase 3 biomarker substudy: response to lampalizumab by aqueous humor Bb; assay type: in vivo, human; conditions: Month 6
# Description: Patient level data for patients in the sham, q4w, and […] lampalizumab Phase 3 biomarker study, as reported by Edmonds et al (Edmonds R. et al., “Complement pathway Inhibition by Lampalizumab: Analysis of Data From Chroma and Spectri Phase III Clinical Trials.” Ophthalmol Sci. 2023; 3 (3): 100286. Published 2023 Feb. 13), in Supplemental FIG. 6 of Bb (ng/mL) in aqueous humor was measured and converted into numerical data points. To verify accuracy of the plotted data points, mean and standard deviation was calculated using the plotted data and compared to the reported mean and standard deviation in Edmonds et al. Values were in good agreement.
# as §1
# In Edmonds, the ratio of Bb/CFB was used to assess complement activity and concluded that dosing with higher concentrations or more frequent dosing would not result in greater inhibitor of the complement pathway as there is no meaningful correlation between Bb: CFB ratio and percent change in aqueous humor from baseline to week 24.
# To reassess the data & results described in Edmonds according to the categorization described herein, the data points for Bb at baseline and Month 6 in Supplemental FIG. 6 were converted into numerical values based on measurement relative to the axes and categorized as follows:
# • 1. […] Ineffective lampalizumab administration-Hyper baseline, hyper at Month 6 and <50% reduction in Bb at Month 6 from baseline Bb • 3.
# [7] = system: Bb in aqueous humor; conditions: essentially all individual patients treated, q4w and q6w (Edmonds at FIG. 4B); cited from earlier work
# [8] = system: patients with geographic atrophy; conditions: cited from earlier work
# [9] = in vivo; cited from earlier work
# [10] = system: complement component Ba in aqueous humor; assay: Real world SYFOVRE study: response category by aqueous humor Ba; assay type: in vivo, human
# Description: (§2) Study Description: This study included GA anatomic (OCT, Specralis) & treatment administration data (treatment, injection date) and aqueous humor (AH) samples from 9 eyes of 5 patients with bilateral GA without CNV, treated with SYFOVRE® per USPI at a private retinal practice in the United States of America. The study was performed in accordance with the tenets of the Declaration of Helsinki and the Medical Research Involving Human Subjects Act (WMO) and was approved by the local Institutional Review Board. Written informed consent was obtained from all participants.
# Assessment of biomarkers of AH concentration of complement component Ba. Aqueous humor sampling of the eyes was conducted by anterior chamber paracentesis using a 30-gauge needle attached to a 1-ml syringe. Samples of up to 150 μl were obtained at baseline (prior to first administration of SYFOVRE®) and after the first, second, or third administration of SYFOVRE®. Quantitative measurement of AH Ba was carried out using a direct capture immunoassay (Micro Vue; Qidel Corporation). Samples were transferred to sterile polypropylene tubes immediately after collection and stored at −80° C. until analysis was performed.
# Categorization of eyes into hyper/homeo/hypo groups was performed: Hyper was ≥20 ng/mL Ba, Homeo was <20 to ≥10 ng/mL Ba, Hypo was <10 ng/mL Ba.
# Categorization of response to SYFOVRE® based on biomarker criteria was performed.
# [11] = system: patients with bilateral GA; assay: FILLY Phase 2 study eye vs. fellow eye analysis; assay type: in vivo, human; conditions: baseline to month 12
# Description: Apellis sponsored FILLY was a phase 2 trial evaluating efficacy of intravitreal pegcetacoplan complement C3 and C3b inhibitor on slowing GA progression, which included only one eye per participant in the treatment group.
# A post hoc analysis of phase 2 FILLY trial data comparing study (treated monthly, treated every other month and sham-treated) and fellow (untreated) eyes in a split-person study design was performed and the results published (Fu et al, 2023, hereinafter “Fu”). This analysis included 288 eyes from 144 patients with bilateral GA from the FILLY phase 2 trial (Clinical Trials identifier: NCT02503332). Only patients with bilateral GA and without evidence of choroidal neovascularization in either eye were included. Patient study eyes were treated with sham injections or with pegcetacoplan monthly (PM) or every other month (PEOM) for 12 months. […] Fu specifically interpreted the data as showing “on an individual patient level, changes in GA area for the fellow eye exceeded those in the study eye for most patients in the pegcetacoplan treatment groups, while changes in the sham group approached randomness between study and fellow eyes.” Fu et al. (Fu D J et al., “Evaluating the Effects of C3 Inhibition on Geographic Atrophy Progression from Deep-Learning OCT Quantification: A Split-Person Study”. Ophthalmol Ther. 2023). […]
# [12] = biological target: C3 (Homo sapiens, UniProt P01024); conditions: report from publications; read-out: affinity for C3; cited from earlier work
# [13] = system: patients with bilateral GA; conditions: FILLY post hoc analysis (Fu), 12 months; cited from earlier work
# [14] = system: GA patients; conditions: implication of FDA approved prescribing information; cited from earlier work
# [15] = system: eyes of patients with bilateral GA without CNV; assay: Real world SYFOVRE study: area of RPE loss by OCT; assay type: in vivo, human; conditions: post treatment (70 days)
# Description: as §2
# For each individual eye, assessment of GA progression between baseline and the measurement of the post treatment ocular proteomics was performed based on OCT images taken at the relevant visits (baseline and visits when AH sample taken). OCT analysis of retinal atrophy was performed using automated measurement of area of RPE loss, with a foveally centered, ETDRS matched analysis performed by RetinAI. Given variability in image centering and quality between visits, for a given eye, only those regions of the retina that had consistent OCT imaging & analysis coverage at each relevant timepoint were used to calculate change in area of retinal atrophy.
# C3, sequence (P01024 23-1663): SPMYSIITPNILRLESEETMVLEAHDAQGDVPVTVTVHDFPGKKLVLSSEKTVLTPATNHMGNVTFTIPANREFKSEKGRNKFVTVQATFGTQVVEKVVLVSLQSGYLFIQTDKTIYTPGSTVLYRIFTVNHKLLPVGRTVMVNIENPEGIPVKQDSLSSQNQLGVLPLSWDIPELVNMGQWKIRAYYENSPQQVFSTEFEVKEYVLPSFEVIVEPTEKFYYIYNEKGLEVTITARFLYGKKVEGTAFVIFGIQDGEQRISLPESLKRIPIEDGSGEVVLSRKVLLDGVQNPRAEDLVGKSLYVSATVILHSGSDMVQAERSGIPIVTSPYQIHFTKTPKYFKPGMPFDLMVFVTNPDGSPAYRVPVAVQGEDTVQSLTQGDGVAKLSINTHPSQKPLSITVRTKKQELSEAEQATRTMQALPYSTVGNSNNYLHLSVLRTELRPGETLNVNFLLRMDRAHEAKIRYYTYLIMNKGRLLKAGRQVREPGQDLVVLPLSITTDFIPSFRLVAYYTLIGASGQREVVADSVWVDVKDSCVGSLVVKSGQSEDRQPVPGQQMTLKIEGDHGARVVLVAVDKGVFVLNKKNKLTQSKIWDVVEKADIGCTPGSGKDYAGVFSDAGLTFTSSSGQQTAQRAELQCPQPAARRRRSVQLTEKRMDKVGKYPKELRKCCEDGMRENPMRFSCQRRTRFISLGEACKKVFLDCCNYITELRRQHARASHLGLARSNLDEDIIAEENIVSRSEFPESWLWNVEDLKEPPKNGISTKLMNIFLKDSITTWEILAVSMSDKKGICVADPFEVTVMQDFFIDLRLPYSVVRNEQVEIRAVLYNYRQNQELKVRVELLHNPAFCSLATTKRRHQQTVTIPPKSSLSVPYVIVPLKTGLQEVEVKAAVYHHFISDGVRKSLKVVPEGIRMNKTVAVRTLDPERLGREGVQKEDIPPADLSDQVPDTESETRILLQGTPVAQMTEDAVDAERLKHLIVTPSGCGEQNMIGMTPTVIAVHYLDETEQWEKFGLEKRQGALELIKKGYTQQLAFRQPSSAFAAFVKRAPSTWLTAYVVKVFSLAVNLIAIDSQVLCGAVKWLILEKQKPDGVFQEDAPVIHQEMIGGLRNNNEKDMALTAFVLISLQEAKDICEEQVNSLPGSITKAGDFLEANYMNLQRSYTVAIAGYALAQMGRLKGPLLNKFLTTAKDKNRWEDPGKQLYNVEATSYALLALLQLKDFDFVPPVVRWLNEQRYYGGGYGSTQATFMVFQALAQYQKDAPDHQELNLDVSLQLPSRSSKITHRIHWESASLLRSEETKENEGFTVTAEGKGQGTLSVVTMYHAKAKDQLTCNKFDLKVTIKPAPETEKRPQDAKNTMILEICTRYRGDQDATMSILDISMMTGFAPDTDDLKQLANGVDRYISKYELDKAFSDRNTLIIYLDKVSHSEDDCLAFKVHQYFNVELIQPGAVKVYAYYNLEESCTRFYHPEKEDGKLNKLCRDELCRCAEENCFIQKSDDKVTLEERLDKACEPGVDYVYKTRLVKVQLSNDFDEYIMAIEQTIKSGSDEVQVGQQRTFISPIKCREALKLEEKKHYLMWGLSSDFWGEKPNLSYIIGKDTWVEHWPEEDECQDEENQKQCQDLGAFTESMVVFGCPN
# C5, sequence (P01031 19-1676): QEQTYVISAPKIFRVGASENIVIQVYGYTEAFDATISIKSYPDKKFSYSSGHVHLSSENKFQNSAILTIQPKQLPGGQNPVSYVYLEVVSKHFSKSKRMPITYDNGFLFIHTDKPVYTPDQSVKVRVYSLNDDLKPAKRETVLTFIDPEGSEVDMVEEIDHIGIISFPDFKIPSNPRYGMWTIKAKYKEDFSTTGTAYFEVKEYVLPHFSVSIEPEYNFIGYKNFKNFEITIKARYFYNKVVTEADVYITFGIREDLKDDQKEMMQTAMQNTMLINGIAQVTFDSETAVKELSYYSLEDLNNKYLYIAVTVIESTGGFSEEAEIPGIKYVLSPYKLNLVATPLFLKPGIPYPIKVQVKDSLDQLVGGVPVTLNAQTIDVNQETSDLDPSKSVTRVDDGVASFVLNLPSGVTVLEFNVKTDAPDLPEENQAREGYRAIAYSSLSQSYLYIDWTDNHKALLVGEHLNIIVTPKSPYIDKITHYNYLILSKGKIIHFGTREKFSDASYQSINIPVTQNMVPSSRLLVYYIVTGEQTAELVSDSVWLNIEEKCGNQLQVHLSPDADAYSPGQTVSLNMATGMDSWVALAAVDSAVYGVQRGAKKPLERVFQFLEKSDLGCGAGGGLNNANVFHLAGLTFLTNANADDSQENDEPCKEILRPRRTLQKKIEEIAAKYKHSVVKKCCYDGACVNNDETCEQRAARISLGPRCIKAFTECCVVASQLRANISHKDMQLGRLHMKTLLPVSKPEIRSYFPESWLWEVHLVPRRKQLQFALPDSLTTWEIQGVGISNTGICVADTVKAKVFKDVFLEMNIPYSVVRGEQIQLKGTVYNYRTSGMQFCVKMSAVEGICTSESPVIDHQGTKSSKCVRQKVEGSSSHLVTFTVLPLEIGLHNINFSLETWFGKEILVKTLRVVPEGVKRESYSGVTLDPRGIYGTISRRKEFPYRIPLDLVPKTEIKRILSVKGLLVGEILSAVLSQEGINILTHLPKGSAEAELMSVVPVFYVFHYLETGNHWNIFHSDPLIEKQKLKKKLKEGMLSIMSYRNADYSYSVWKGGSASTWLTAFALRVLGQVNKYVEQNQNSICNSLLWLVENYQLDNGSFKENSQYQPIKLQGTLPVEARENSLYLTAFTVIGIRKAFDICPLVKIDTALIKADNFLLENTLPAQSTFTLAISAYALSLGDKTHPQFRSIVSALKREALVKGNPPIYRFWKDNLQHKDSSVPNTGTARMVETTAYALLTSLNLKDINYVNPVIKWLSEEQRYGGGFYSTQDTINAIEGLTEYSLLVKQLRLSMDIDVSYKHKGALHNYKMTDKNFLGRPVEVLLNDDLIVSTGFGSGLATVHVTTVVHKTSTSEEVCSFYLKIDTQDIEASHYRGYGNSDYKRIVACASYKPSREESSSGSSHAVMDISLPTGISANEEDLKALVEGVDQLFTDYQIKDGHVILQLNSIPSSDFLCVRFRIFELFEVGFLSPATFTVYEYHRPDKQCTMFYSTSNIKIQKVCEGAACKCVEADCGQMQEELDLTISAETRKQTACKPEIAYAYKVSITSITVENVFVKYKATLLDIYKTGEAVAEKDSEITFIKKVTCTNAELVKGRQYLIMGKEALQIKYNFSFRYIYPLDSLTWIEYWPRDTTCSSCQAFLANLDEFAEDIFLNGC
molecule,measurement,setting,value
[2H]C([2H])([2H])C(/C=C/C=C(C)/C=C/C1=C(C)CCCC1(C)C)=C\COC(C)=O [Alkeus],benefit in trials,[1],failed to show benefit
CC(=O)c1nn(CC(=O)N2C[C@H](F)C[C@H]2C(=O)Nc2cccc(Br)n2)c2ccc(-c3cnc(C)nc3)cc12 [danicopan],benefit in trials,[1],failed to show benefit
avacincaptad pegol [IZERVAY®],reduction in mean rate of GA growth vs. sham at 12 months,[2]; GATHER 1,27.4%
same,reduction in mean rate of GA growth vs. sham at 12 months,[2]; GATHER 2,14%
same,geometric mean half-life of elimination (t1/2),[3],288 h
same,Kd,[4],~3 nM
"lampalizumab: anti-fD fab, intravitreally administered 10 mg at q4w or q6w",Change in GA area from baseline: (Edmonds et al) Biomarker pooled cohort at 48 w divided by 2,[5]; Q4w,1.08
same,Change in GA area from baseline: CHROMA + SPECTRIA Pooled topline extrapolate to 24 w,[5]; Q4w,1.027
same,Change in GA area from baseline: (Edmonds et al) Biomarker pooled cohort at 48 w divided by 2,[5]; Q6w,1.03
same,Change in GA area from baseline: CHROMA + SPECTRIA Pooled topline extrapolate to 24 w,[5]; Q6w,1.028
same,Post treatment response: Effective (number of eyes),"[6]; Q4w, 35 eyes, 14 hyper",6
same,Of Hyper; Effective,[6]; Q4w,43%
same,Post treatment response: Effective (number of eyes),"[6]; Q6w, 32 eyes, 10 hyper",2
same,Of Hyper; Effective,[6]; Q6w,20%
same,benefit in trials,[1],failed to show benefit
same,Status (clinical trial outcome),[1],failed to meet
same,Bb/CFB in aqueous humor,[7],decreases in Bb/CFB
same,Change in GA area from baseline: (Edmonds et al) Biomarker pooled cohort at 48 w,[8]; Q4w,2.16
same,Change in GA area from baseline: Actual Data from (Edmonds) Biomarker pooled cohort at 24 w,[8]; Q4w,1.0
same,Change in GA area from baseline: CHROMA + SPECTRI Pooled topline at 48 weeks,[8]; Q4w,2.054
same,Change in GA area from baseline: (Edmonds et al) Biomarker pooled cohort at 48 w,[8]; Q6w,2.06
same,Change in GA area from baseline: Actual Data from (Edmonds) Biomarker pooled cohort at 24 w,[8]; Q6w,1.04
same,Change in GA area from baseline: CHROMA + SPECTRI Pooled topline at 48 weeks,[8]; Q6w,2.055
pegcetacoplan [SYFOVRE®],geometric mean half-life of elimination (t1/2),[9],108 h
same,Response Category,"[10]; Eye ID 001, OD, baseline category Hyper",Effective Complement Inhibition
same,Response Category,"[10]; Eye ID 002, OS, baseline category Hypo",Not
same,Response Category,"[10]; Eye ID 003, OD, baseline category Hyper",Not
same,Response Category,"[10]; Eye ID 004, OS, baseline category Hyper",Not
same,Response Category,"[10]; Eye ID 005, OD, baseline category Homeo",Not
same,Response Category,"[10]; Eye ID 006, OS, baseline category Homeo",Not
same,Response Category,"[10]; Eye ID 007, OD, baseline category Hypo",Not
same,Response Category,"[10]; Eye ID 008, OS, baseline category Hypo",Not
same,Response Category,"[10]; Eye ID 009, OD, baseline category Hypo",Not
same,">=50% slowing study vs. fellow, %","[11]; PEOM (every other month), 35 eyes",20%
same,">=50% slowing study vs. fellow, %","[11]; PM (monthly), 36 eyes",53%
same,Kd,[12],15 nM
same,spatial GA progression compared to untreated fellow eyes,[13],reduction in spatial GA progression
same,"expected average efficacy, slowing for all indicated GA patients",[14],20%
same,RPE depletion area post treatment,"[15]; Eye ID 001, OD, hyper baseline, effective complement inhibition, baseline 6.57 mm^2",6.45 mm^2
same,RPE depletion area post treatment,"[15]; Eye ID 002, OS, hypo baseline, baseline 5.8 mm^2",6.75 mm^2
"Tesidolumab: an antibody vs. C5 (antibody, chains of the INN, looked up, V domains shown) VH: EVQLVQSGAEVKKPGSSVKVSCKASGGTFSSYAISWVRQAPGQGLEWMGGIGPFFGTANYAQKFQGRVTITADESTSTAYMELSSLRSEDTAVYYCARDTPYFDYWGQGTLVTVSS VL: SYELTQPLSVSVALGQTARITCSGDSIPNYYVYWYQQKPGQAPVLVIYDDSNRPSGIPERFSGSNSGNTATLTISRAQAGDEADYYCQSFDSSLNAEVFGGGTKLTVL",Status (clinical trial outcome),[1],Phase II failed
